Test system: skin equivalent marketed by EPISKIN (reconstructed epidermis)
Test: Synthesis of epidermal ceramides in reconstructed epidermis (14C acetate labelling, HPTLC, densitometry)
Format: cell-based
Details: each compound alone at 15 μg/ml, relative to the untreated control; for % increase in ceramides in the epidermis equivalent: 24 hours of treatment; for % increase in the ceramides in the epidermis equivalent: 48 hours of treatment
Procedure: Ascorbic acid and derivatives thereof were tested on a skin equivalent marketed by EPISKIN (LYON, France), after culturing the latter for 7 days. The culture and test media were those included in the kit marketed by the supplier. Each compound was tested individually at 15 μg/ml and in combination with 5 μg/ml (as vitamin C equivalent), in the culture medium. The reconstructed epidermes were treated for 24 hours. The control consisted of an identical epidermis equivalent which was subjected to topical application of culture medium without the test compound.
The reconstructed epidermis was incubated overnight with ^14C acetate (2 μCi/ml) before topical application of vitamin C and derivatives thereof, to monitor the synthesis of the lipids.
At the end of the incubation period, the epidermis equivalent was detached from its collagenic support. The preparation of the lipids of the epidermis equivalent and their analysis by HPTLC or high-performance thin-layer chromatography, were carried out according to the technique and with the buffers described by M. Ponec (1991, Adv. Lipid Res., 24:83-117).
At the end of the migration, densitometric analysis of the autoradiograph was carried out using a densitometer of the FUJI brand, model 1800.
The procedure described in Example 1 was repeated, except that the test was performed over 48 hours instead of 24 hours. In addition, only vitamin C and vitamin CP were tested, the mixture of the two being formulated using 7.5 μg/ml of each vitamin.

Row | Structure (SMILES) | % increase in ceramides in the epidermis equivalent [%] | % increase in the ceramides in the epidermis equivalent [%]
1 | O=C1O[C@H]([C@@H](O)CO)C(O)=C1O [Vitamin C, ascorbic acid] | 54 | 126
2 | O=C1O[C@H]([C@@H](O)CO)C(O)=C1O[C@H]1O[C@H](CO)[C@@H](O)[C@H](O)[C@H]1O [Vitamin CG, ascorbyl 2-glucoside] | 69 | –
3 | O=C1O[C@H]([C@@H](O)CO)C([O-])=C1OP(=O)([O-])[O-].O=C1O[C@H]([C@@H](O)CO)C([O-])=C1OP(=O)([O-])[O-].[Mg+2].[Mg+2].[Mg+2] [Vitamin CP, Magnesium ascorbyl phosphate] | 99 | 148

From US20030190338A1, “Topical application of immixture of ascorbic acid + ascorbic acid compounds for augmenting the synthesis of epidermal ceramides” (SOCIETE L'OREAL S.A., priority 2000, published 2003)
